Here are results for 11 compounds from PubChem BioAssay (NCI).

Test systems include HCC-2998 colon; LOX IMVI melanoma; NCI-H226 lung; CAKI-1 renal; TK-10 renal; COLO 205 colon; UACC-257 melanoma; CCRF-CEM leukemia; MALME-3M melanoma; SR leukemia.
Common to all, as to assay: NCI anticancer screen, dose series, 48 h

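Cultured in 96-well plates, cells were exposed to test compound for 48 hours across five concentrations. Abbreviation: GI50, concentration required for 50% inhibition of growth. TGI is the concentration that stops growth completely.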

`CCCOc1cc2ccccc2cc1C(=O)Nc1nc(NC)c2c(ccc3nccc32)[nH]1`: the GI50 is 1.11 µM with HCC-2998 colon; 0.42 µM in the test on LOX IMVI melanoma; 1.65 µM in the test with NCI-H226 lung; 1.76 µM in the test on CAKI-1 renal; 1.36 µM in the test with TK-10 renal; 0.479 µM with COLO 205 colon. Further, the GI50 is 1.21 µM in the test on UACC-257 melanoma, 0.311 µM in the test on CCRF-CEM leukemia and 1.15 µM in the test with MALME-3M melanoma. The TGI in the test with HCC-2998 colon was 2.41 µM; in the test with LOX IMVI melanoma it was 1.76 µM; in the test with NCI-H226 lung, 3.8 µM; with CAKI-1 renal, 3.82 µM; in the test on TK-10 renal, 2.68 µM; in the test on COLO 205 colon, 1.81 µM. Also, the TGI is 2.56 µM in the test on UACC-257 melanoma, 1.04 µM with CCRF-CEM leukemia and 2.54 µM with MALME-3M melanoma.
`CC(=O)Oc1ccc2c(c1)[C@@]1(C)CCCC(C)(C)[C@@H]1CC2`: the GI50 in the test on SR leukemia is greater than 100 µM; in the test with LOX IMVI melanoma, 17.7 µM; with NCI-H226 lung it was 18.5 µM; in the test on CAKI-1 renal, 28 µM; in the test with COLO 205 colon, 21.9 µM; with UACC-257 melanoma, 18.2 µM. Further, the GI50 in the test with CCRF-CEM leukemia is 87.4 µM. Moreover, the TGI in the test on SR leukemia is greater than 100 µM; in the test on LOX IMVI melanoma, 32.1 µM; with NCI-H226 lung it was 37.4 µM; in the test on CAKI-1 renal, greater than 100 µM; in the test on COLO 205 colon, 53.6 µM; in the test on UACC-257 melanoma it was 43.6 µM. The compound also gave a TGI with CCRF-CEM leukemia greater than 100 µM.
Turning to `C/C(=N\NC(=O)C[N+](C)(C)C)c1sc(-c2cccnc2)nc1C`, the TGI in the test on HCC-2998 colon, with LOX IMVI melanoma, in the test with NCI-H226 lung, in the test with TK-10 renal, in the test with COLO 205 colon and in the test on UACC-257 melanoma was greater than 100 µM in each case. For the same compound, the TGI in the test with CCRF-CEM leukemia and with MALME-3M melanoma was greater than 100 µM each time.
In the case of `[N-]=[N+]=NCCCn1c2c(c3ccc([N+](=O)[O-])cc3c1=O)C(=O)c1cc3c(cc1-2)OCO3`, the GI50 in the test on SR leukemia was less than 0.01 µM; in the test on LOX IMVI melanoma, less than 0.01 µM; with NCI-H226 lung, less than 0.01 µM; with CAKI-1 renal, less than 0.01 µM; in the test on TK-10 renal, 2.26 µM; in the test on COLO 205 colon it was 0.585 µM. In addition, the GI50 was 0.495 µM in the test with UACC-257 melanoma and less than 0.01 µM in the test with CCRF-CEM leukemia. The TGI with SR leukemia is less than 0.01 µM; in the test with LOX IMVI melanoma, 1.02 µM; in the test on NCI-H226 lung, 2.34 µM; in the test with CAKI-1 renal, less than 0.0152 µM; in the test on TK-10 renal, 19.9 µM; with COLO 205 colon, greater than 100 µM. Further, the TGI with UACC-257 melanoma is 15.2 µM; with CCRF-CEM leukemia, 0.0679 µM.
For `Nc1nonc1-c1nc2ccccc2n1Cc1ccc(F)cc1`, the GI50 in the test with SR leukemia is 4.89 µM; with LOX IMVI melanoma, 6.48 µM; in the test with NCI-H226 lung, greater than 100 µM; in the test with CAKI-1 renal, 3.48 µM; with TK-10 renal it was 6.78 µM; with COLO 205 colon, 5.02 µM. Moreover, the GI50 in the test with UACC-257 melanoma is greater than 100 µM; in the test on MALME-3M melanoma, 5.09 µM. The TGI with SR leukemia, in the test with LOX IMVI melanoma, in the test with NCI-H226 lung, in the test with CAKI-1 renal, in the test on TK-10 renal and in the test with COLO 205 colon was greater than 100 µM in each case. For the same compound, the TGI in the test on UACC-257 melanoma and with MALME-3M melanoma was greater than 100 µM in each case.
For the compound `CCc1cccc(C(C)C)c1NC(=O)CCl`, the TGI in the test on SR leukemia, with LOX IMVI melanoma, with NCI-H226 lung, in the test on CAKI-1 renal, in the test on TK-10 renal and in the test with UACC-257 melanoma was greater than 100 µM in each case. Moreover, the TGI in the test with CCRF-CEM leukemia and in the test with MALME-3M melanoma was greater than 100 µM throughout.
Take `Cc1cc(N(CCC#N)CCC#N)ccc1N=Nc1cc(Cl)ccc1Cl`: the TGI in the test on HCC-2998 colon worked out at 32.9 µM; in the test with LOX IMVI melanoma, 14.2 µM; with NCI-H226 lung, 25.2 µM; in the test on CAKI-1 renal, 9.68 µM; in the test with TK-10 renal, 23.8 µM; in the test with COLO 205 colon, 4.97 µM. Moreover, the TGI was found to be 23.8 µM in the test with UACC-257 melanoma, 19.2 µM in the test on CCRF-CEM leukemia and 17.9 µM in the test on MALME-3M melanoma.
For the compound `Cc1ccc(S(=O)(=O)N2CCCSCCSCCCN(S(=O)(=O)c3ccc(C)cc3)CC2)cc1`, the TGI with HCC-2998 colon, in the test on NCI-H226 lung, in the test with TK-10 renal, in the test on COLO 205 colon and with UACC-257 melanoma was greater than 100 µM in each case.
Turning to `CCN(CC)c1c(-c2ccccc2)n[nH]c1C(=O)OC`, the GI50 with SR leukemia is 17.2 µM; in the test on LOX IMVI melanoma, 35.3 µM; in the test with NCI-H226 lung, 16.9 µM; with CAKI-1 renal, 25.8 µM; in the test with TK-10 renal it was 22.5 µM; with COLO 205 colon, 17.7 µM. The GI50 in the test on UACC-257 melanoma is 12.6 µM; with CCRF-CEM leukemia it was 22.8 µM; in the test on MALME-3M melanoma, 15.9 µM. Also, the TGI is 80.1 µM in the test on SR leukemia; greater than 100 µM in the test with LOX IMVI melanoma; 38.5 µM in the test with NCI-H226 lung; 55.5 µM with CAKI-1 renal; 59.2 µM with TK-10 renal; 64 µM in the test on COLO 205 colon. In addition, the TGI in the test on UACC-257 melanoma is 36.5 µM; in the test on CCRF-CEM leukemia, 71 µM; in the test with MALME-3M melanoma, 41.5 µM.
Consider `Cc1c(Cl)c(=O)oc2cc(OC/C=C3\CCC(=O)O3)ccc12`, for which the GI50 in the test with HCC-2998 colon is 18 µM; in the test with LOX IMVI melanoma, 15.6 µM; in the test with NCI-H226 lung, 34.6 µM; in the test with CAKI-1 renal, 11.6 µM; in the test on TK-10 renal, 13.8 µM; with COLO 205 colon it was 12.9 µM. Further, the GI50 in the test with UACC-257 melanoma was 27.2 µM; in the test with CCRF-CEM leukemia it was 12.5 µM; in the test on MALME-3M melanoma, 12.9 µM. The TGI is 41.2 µM in the test on HCC-2998 colon; 29.7 µM with LOX IMVI melanoma; greater than 100 µM with NCI-H226 lung; 30.2 µM in the test with CAKI-1 renal; 32.6 µM in the test with TK-10 renal; 30.1 µM with COLO 205 colon. Besides, the TGI amounted to 99 µM in the test with UACC-257 melanoma, 61.3 µM in the test on CCRF-CEM leukemia and 32.2 µM in the test with MALME-3M melanoma.
With `Cc1ccc(S(=O)(=O)N/N=C(\c2nc3ccc([N+](=O)[O-])cc3[nH]c2=O)C(O)c2ccc([N+](=O)[O-])cc2)cc1` (stereo not drawn), the TGI with HCC-2998 colon, in the test with LOX IMVI melanoma, in the test on CAKI-1 renal, in the test with TK-10 renal, in the test on COLO 205 colon and in the test with UACC-257 melanoma was greater than 100 µM in each case. For the same compound, the TGI in the test with CCRF-CEM leukemia and in the test with MALME-3M melanoma was greater than 100 µM each time.
